This test concerns the target T1, wild-type human ALK cytoplasmic domain (amino acids 1058-1620) (Homo sapiens, UniProt Q9UM73).
T1 construct: The cytoplasmic domain (amino acids 1058-1620) of wild-type human ALK; GST (N); made in house; host or cells: SF9 insect cells
Kind of test: ALK Inhibition in Enzyme Assay (Lance TR-FRET). The note with it: 2 nM enzyme, ATP at 40 μM (Km apparent), 90 minutes, mean of three replicates; read-out: ALK IC50. It counts as biochemical. A digest of the protocol:
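Purified enzyme phosphorylated a biotinylated peptide substrate for 90 minutes at room temperature. Reactions were stopped with 20 mM EDTA in 50 mM Tris (pH 7.5), 100 mM NaCl, 0.05% BSA, 0.1% Tween-20. Phosphopeptide was detected by TR-FRET with SA-APC and Eu-W1024 anti-phosphotyrosine antibody PT66, excitation 320 nm.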
In general terms: In TR-FRET formats the signal depends on donor and acceptor labels being close together.
T1 sequence (Q9UM73 1058-1620): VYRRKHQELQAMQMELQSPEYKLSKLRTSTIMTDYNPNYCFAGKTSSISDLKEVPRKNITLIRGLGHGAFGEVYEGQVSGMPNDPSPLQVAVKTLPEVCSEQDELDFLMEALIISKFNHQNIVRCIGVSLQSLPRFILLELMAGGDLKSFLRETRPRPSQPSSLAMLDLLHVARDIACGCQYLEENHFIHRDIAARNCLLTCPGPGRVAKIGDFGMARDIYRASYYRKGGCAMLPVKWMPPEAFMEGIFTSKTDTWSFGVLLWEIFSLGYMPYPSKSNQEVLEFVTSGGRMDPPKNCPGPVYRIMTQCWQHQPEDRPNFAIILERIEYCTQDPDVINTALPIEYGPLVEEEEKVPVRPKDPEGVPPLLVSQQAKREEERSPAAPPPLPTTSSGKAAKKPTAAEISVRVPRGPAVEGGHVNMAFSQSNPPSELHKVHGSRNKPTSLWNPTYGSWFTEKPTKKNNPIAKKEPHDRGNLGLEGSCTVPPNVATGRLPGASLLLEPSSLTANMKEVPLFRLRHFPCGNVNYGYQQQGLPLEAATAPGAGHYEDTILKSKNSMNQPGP
Broadly, the IC50 is the point on the concentration scale where inhibition reaches its midpoint. As to `Cc1ccc(CNC(=O)[C@H]2CCCN(c3ccnc(Nc4cccc(S(N)(=O)=O)c4)n3)C2)cc1` [Example 151, (3S)-N-(4-methylbenzyl)-1-(2-((3-sulfamoylphenyl)amino)-4-pyrimidinyl)-3-piperidinecarboxamide], the IC50 lay within 100 to 1000 nM.

For the molecule `Cc1ccc(CNC(=O)[C@H]2CCCN(c3ccnc(Nc4cccc(Cc5ccccc5)c4)n3)C2)cc1` [Example 152, (3S)-1-(2-((3-benzylphenyl)amino)-4-pyrimidinyl)-N-(4-methylbenzyl)-3-piperidinecarboxamide], the IC50 fell in the range of 100 to 1000 nM.

For the molecule `Cc1ccc(CNC(=O)[C@H]2CCCN(c3ccnc(Nc4cc(C(C)(C)C)cc(C(C)(C)C)c4)n3)C2)cc1` [Example 153, (3S)-1-(2-((3,5-di-tert-butylphenyl)amino)-4-pyrimidinyl)-N-(4-methylbenzyl)-3-piperidinecarboxamide], the IC50 was 1000 to 5000 nM.

Regarding `Cc1ccc(CNC(=O)[C@H]2CCCN(c3ccnc(Nc4ccc(C(=O)N(C)C)cc4)n3)C2)cc1` [Example 154, (3S)-1-(2-((4-(dimethylcarbamoyl)phenyl)amino)-4-pyrimidinyl)-N-(4-methylbenzyl)-3-piperidinecarboxamide], the IC50 lay within 1000 to 5000 nM.

As to `Cc1ccc(CNC(=O)[C@H]2CCCN(c3ccnc(Nc4cc(C)cc(C)c4)n3)C2)cc1` [Example 155, (3S)-1-(2-((3,5-dimethylphenyl)amino)-4-pyrimidinyl)-N-(4-methylbenzyl)-3-piperidinecarboxamide], the IC50 lay in the range of 1000 to 5000 nM.

With `CSc1cccc(Nc2nccc(N3CCC[C@H](C(=O)NCc4ccc(C)cc4)C3)n2)c1` [Example 157, (3S)-N-(4-methylbenzyl)-1-(2-((3-(methylsulfanyl)phenyl)amino)-4-pyrimidinyl)-3-piperidinecarboxamide], the IC50 lay within 100 to 1000 nM.

For the molecule `Cc1ccc(CNC(=O)[C@H]2CCCN(c3ccnc(Nc4cccc(C)c4)n3)C2)cc1` [Example 158, (3S)-N-(4-methylbenzyl)-1-(2-((3-methylphenyl)amino)-4-pyrimidinyl)-3-piperidinecarboxamide], the concentration for half-maximal inhibition (IC50) lay within 100 to 1000 nM.

Regarding `Cc1ccc(CNC(=O)[C@H]2CCCN(c3ccnc(Nc4cc(F)cc(F)c4)n3)C2)cc1` [Example 159, (3S)-1-(2-((3,5-difluorophenyl)amino)-4-pyrimidinyl)-N-(4-methylbenzyl)-3-piperidinecarboxamide], the IC50 is 1000 to 5000 nM.

Regarding `Cc1ccc(CNC(=O)[C@H]2CCCN(c3ccnc(Nc4cccc(OC(C)C)c4)n3)C2)cc1` [Example 160, (3S)-N-(4-methylbenzyl)-1-(2-((3-(1-methylethoxy)phenyl)amino)-4-pyrimidinyl)-3-piperidinecarboxamide], the IC50 was 100 to 1000 nM.

`Cc1ccc(CNC(=O)[C@H]2CCCN(c3ccnc(Nc4ccc(N5CCN(C)CC5)cc4)n3)C2)cc1` [Example 161, (3S)-N-(4-methylbenzyl)-1-(2-((4-(4-methyl-1-piperazinyl)phenyl)ami-no)-4-pyrimidinyl)-3-piperidinecarboxamide]: the IC50 lay within 100 to 1000 nM.

In the case of `Cc1ccc(CNC(=O)[C@H]2CCCN(c3ccnc(Nc4cc(C(F)(F)F)cc(C(F)(F)F)c4)n3)C2)cc1` [Example 163, (3S)-1-(2-((3,5-bis(trifluoromethyl)phenyl)amino)-4-pyrimidinyl)-N-(4-methylbenzyl)-3-piperidinecarboxamide], the IC50 lay in the range of 100 to 1000 nM.

`Cc1ccc(CNC(=O)[C@H]2CCCN(c3ccnc(Nc4cccc(OC(F)(F)F)c4)n3)C2)cc1` [Example 164, (3S)-N-(4-methylbenzyl)-1-(2-((3-(trifluoromethoxy)phenyl)amino)-4-pyrimidinyl)-3-piperidinecarboxamide]: the IC50 was 1000 to 5000 nM.

For `CC(=O)Nc1ccc(Nc2nccc(N3CCC[C@H](C(=O)NCc4ccc(C)cc4)C3)n2)cc1` [Example 165, (3S)-1-(2-((4-(acetylamino)phenyl)amino)-4-pyrimidinyl)-N-(4-methylbenzyl)-3-piperidinecarboxamide], the IC50 was 1000 to 5000 nM.

`Cc1ccc(CNC(=O)[C@H]2CCCN(c3ccnc(Nc4ccc(C#N)cc4)n3)C2)cc1` [Example 166, (3S)-1-(2-((4-cyanophenyl)amino)-4-pyrimidinyl)-N-(4-methylbenzyl)-3-piperidinecarboxamide]: the IC50 is 1000 to 5000 nM.

`Cc1ccc(CNC(=O)[C@H]2CCCN(c3ccnc(Nc4cccc(C(C)O)c4)n3)C2)cc1` (stereo partly drawn) [Example 167, (3S)-1-(2-((3-(1-hydroxyethyl)phenyl)amino)-4-pyrimidinyl)-N-(4-methylbenzyl)-3-piperidinecarboxamide]: the IC50 was 100 to 1000 nM.

As for `CNC(=O)c1cccc(Nc2nccc(N3CCC[C@H](C(=O)NCc4ccc(C)cc4)C3)n2)c1` [Example 168, (3S)-N-(4-methylbenzyl)-1-(2-((3-(methylcarbamoyl)phenyl)amino)-4-pyrimidinyl)-3-piperidinecarboxamide], the IC50 fell in the range of 1000 to 5000 nM.

For the molecule `COc1cc(F)cc(Nc2nccc(N3CCC[C@H](C(=O)NCc4ccc(C)cc4)C3)n2)c1` [Example 169, (3S)-1-(2-((3-fluoro-5-methoxyphenyl)amino)-4-pyrimidinyl)-N-(4-methylbenzyl)-3-piperidinecarboxamide], the IC50 was 100 to 1000 nM.

Consider `COc1cc(Nc2nccc(N3CCC[C@H](C(=O)NCc4ccc(C)cc4)C3)n2)cc(C(F)(F)F)c1` [Example 170, (3S)-1-(2-((3-methoxy-5-(trifluoromethyl)phenyl)amino)-4-pyrimidinyl)-N-(4-methylbenzyl)-3-piperidinecarboxamide], for which the IC50 lay in the range of 100 to 1000 nM.

As for `Cc1ccc(CNC(=O)[C@H]2CCCN(c3ccnc(Nc4cccc(C(C)C)c4)n3)C2)cc1` [Example 171, (3S)-N-(4-methylbenzyl)-1-(2-((3-(1-methylethyl)phenyl)amino)-4-pyrimidinyl)-3-piperidinecarboxamide], the IC50 fell in the range of 100 to 1000 nM.

Consider `Cc1ccc(CNC(=O)[C@H]2CCCN(c3ccnc(Nc4ccc(C(C)C)cc4)n3)C2)cc1` [Example 172, (3S)-N-(4-methylbenzyl)-1-(2-((4-(1-methylethyl)phenyl)amino)-4-pyrimidinyl)-3-piperidinecarboxamide], for which the IC50 was 1000 to 5000 nM.

Take `Cc1ccc(CNC(=O)[C@H]2CCCN(c3ccnc(Nc4ccc(C(N)=O)cc4)n3)C2)cc1` [Example 173, (3S)-1-(2-((4-carbamoylphenyl)amino)-4-pyrimidinyl)-N-(4-methylbenzyl)-3-piperidinecarboxamide]: the IC50 is 1000 to 5000 nM.

Turning to `Cc1ccc(CNC(=O)[C@H]2CCCN(c3ccnc(Nc4cc(Cl)cc(Cl)c4)n3)C2)cc1` [Example 174, (3S)-1-(2-((3,5-dichlorophenyl)amino)-4-pyrimidinyl)-N-(4-methylbenzyl)-3-piperidinecarboxamide], the IC50 fell in the range of 1000 to 5000 nM.

As to `Cc1ccc(CNC(=O)[C@H]2CCCN(c3ccnc(Nc4cccc(OCc5ccccc5)c4)n3)C2)cc1` [Example 175, (3S)-1-(2-((3-(benzyloxy)phenyl)amino)-4-pyrimidinyl)-N-(4-methylbenzyl)-3-piperidinecarboxamide], the IC50 was 1000 to 5000 nM.

Consider `Cc1ccc(CNC(=O)[C@H]2CCCN(c3ccnc(Nc4cccc(-c5nnn[nH]5)c4)n3)C2)cc1` [Example 176, (3S)-N-(4-methylbenzyl)-1-(2-((3-(1H-tetrazol-5-yl)phenyl)amino)-4-pyrimidinyl)-3-piperidinecarboxamide], for which the IC50 lay in the range of 5000 to 10000 nM.

Consider `Cc1ccc(CNC(=O)[C@H]2CCCN(c3ccnc(Nc4cccc(-c5cnco5)c4)n3)C2)cc1` [Example 177, (3S)-N-(4-methylbenzyl)-1-(2-((3-(1,3-oxazol-5-yl)phenyl)amino)-4-pyrimidinyl)-3-piperidinecarboxamide], for which the IC50 fell in the range of 100 to 1000 nM.

As for `CC(=O)Nc1cccc(Nc2nccc(N3CCC[C@H](C(=O)NCc4ccc(C)cc4)C3)n2)c1` [Example 178, (3S)-1-(2-((3-(acetylamino)phenyl)amino)-4-pyrimidinyl)-N-(4-methylbenzyl)-3-piperidinecarboxamide], the IC50 was in the range of 100 to 1000 nM.

Consider `Cc1ccc(CNC(=O)[C@H]2CCCN(c3ccnc(Nc4ccc(F)cc4)n3)C2)cc1` [Example 179, (3S)-1-(2-((4-fluorophenyl)amino)-4-pyrimidinyl)-N-(4-methylbenzyl)-3-piperidinecarboxamide], for which the IC50 lay within 1000 to 5000 nM.

Regarding `Cc1ccc(CNC(=O)[C@H]2CCCN(c3ccnc(Nc4ccc(C)cc4)n3)C2)cc1` [Example 180, (3S)-N-(4-methylbenzyl)-1-(2-((4-methylphenyl)amino)-4-pyrimidinyl)-3-piperidinecarboxamide], the IC50 was 1000 to 5000 nM.

In the case of `Cc1ccc(CNC(=O)[C@H]2CCCN(c3ccnc(Nc4cccc(C(C)(C)C)c4)n3)C2)cc1` [Example 181, (3S)-1-(2-((3-tert-butylphenyl)amino)-4-pyrimidinyl)-N-(4-methylbenzyl)-3-piperidinecarboxamide], the IC50 was 100 to 1000 nM.

For the molecule `Cc1ccc(CNC(=O)[C@H]2CCCN(c3ccnc(Nc4cccc(-c5ccccc5)c4)n3)C2)cc1` [Example 182, (3S)-1-(2-(3-biphenylylamino)-4-pyrimidinyl)-N-(4-methylbenzyl)-3-piperidinecarboxamide], the IC50 was 100 to 1000 nM.

As to `CC(=O)NCc1cccc(Nc2nccc(N3CCC[C@H](C(=O)NCc4ccc(C)cc4)C3)n2)c1` [Example 183, (3S)-1-(2-((3-((acetylamino)methyl)phenyl)amino)-4-pyrimidinyl)-N-(4-methylbenzyl)-3-piperidinecarboxamide], the IC50 was 100 to 1000 nM.

In the case of `Cc1ccc(CNC(=O)[C@H]2CCCN(c3ccnc(Nc4cccc(CC(N)=O)c4)n3)C2)cc1` [Example 184, (3S)-1-(2-((3-(2-amino-2-oxoethyl)phenyl)amino)-4-pyrimidinyl)-N-(4-methylbenzyl)-3-piperidinecarboxamide], the IC50 was 100 to 1000 nM.

Source of the values: patent US8716281B2, “Pyrimidine compounds that inhibit anaplastic lymphoma kinase” (Amgen Inc., priority 2010, dated 2014).
